Source: publication PMC3871589, “Evaluation of STAT3 Signaling in ALDH+ and ALDH+/CD44+/CD24− Subpopulations of Breast Cancer Cells” (PLoS ONE, 2013)

Columns and labels:
JAK2 = JAK2 (Homo sapiens, UniProt O60674); experiment: Kinase profiler assay, JAK2; type: biochemical; conditions: 10 concentrations, 100 µM highest; Table S3
Description: (§1) The effects of LLL12 on twenty six purified human protein kinases were performed at the Millipore UK Limited (Dundee, UK) and Reaction Biology Corp. (Malvern, PA) using the Kinase profiler assay. Assays contained a peptide substrate, purified recombinant human protein kinases to be tested, and gamma-labeled ATP, magnesiumion. Radioactive phosphorylated product was measured and quantitated via a scintillation counter.

Syk = Syk (Homo sapiens, UniProt P43405); experiment: Kinase profiler assay, Syk; type: biochemical; conditions: 10 concentrations, 100 µM highest; Table S3
Description: as §1

c-Raf = c-Raf (Homo sapiens, UniProt P04049); experiment: Kinase profiler assay, c-Raf; type: biochemical; conditions: bound stated jointly for the other protein kinases; Table S3
Chain of c-Raf (P04049 whole entry): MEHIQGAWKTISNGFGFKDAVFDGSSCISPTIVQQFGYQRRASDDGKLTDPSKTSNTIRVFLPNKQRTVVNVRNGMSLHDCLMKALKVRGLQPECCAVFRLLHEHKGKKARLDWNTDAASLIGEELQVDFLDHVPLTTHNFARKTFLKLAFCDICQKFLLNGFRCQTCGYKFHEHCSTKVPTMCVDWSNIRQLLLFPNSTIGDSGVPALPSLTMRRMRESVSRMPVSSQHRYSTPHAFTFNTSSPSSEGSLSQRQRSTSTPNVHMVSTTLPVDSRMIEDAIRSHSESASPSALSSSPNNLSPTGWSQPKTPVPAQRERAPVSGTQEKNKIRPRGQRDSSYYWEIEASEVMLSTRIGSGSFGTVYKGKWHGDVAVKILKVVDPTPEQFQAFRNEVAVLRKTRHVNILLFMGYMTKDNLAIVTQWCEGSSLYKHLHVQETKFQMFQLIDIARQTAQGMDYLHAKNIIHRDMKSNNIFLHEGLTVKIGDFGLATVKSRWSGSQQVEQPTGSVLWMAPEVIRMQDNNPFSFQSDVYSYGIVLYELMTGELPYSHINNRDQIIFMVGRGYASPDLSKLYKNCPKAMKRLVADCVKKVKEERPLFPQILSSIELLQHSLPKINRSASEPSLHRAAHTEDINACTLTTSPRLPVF
Description: as §1

PI3K = experiment: Kinase profiler assay, PI3K; type: biochemical, human; conditions: bound stated jointly for the other protein kinases; Table S3
Description: as §1

[1] = test system: ERK 1/2 (T202/Y204) phosphorylation; experiment: Western blot of ERK phosphorylation in un-separated breast cancer cells; type: cell-based, human; conditions: 10 µM, 24 hours
Description: (§2) After sorting by flow cytometry, ALDH^+ and ALDH^+/CD44^+/CD24^− stem-like cells were cultured in serum-free stem cell medium in ultra-low attachment six-well plates (Corning) to maintain cancer stem cell characteristics. ALDH^−, ALDH^−/CD44^+/CD24^+cells and un-separated cells were cultured in regular medium and replaced with identical stem cell medium for three days before being harvested. To assess the effects of STAT3 inhibitors, ALDH^+ and ALDH^+/CD44^+/CD24^− subpopulations of breast cancer cells were treated with LLL12 (5 µmol/L) of or static (10 µmol/L) for 24 hours. STAT3, or control GFP shRNA lentivirus (CTL ShRNA) was introduced into ALDH^+ breast cancer stem-like cells for 48 hours, then followed by selection with puromycin (0.2 µg/ml) for 72 hours. Antibodies (Cell Signaling Tech.) against phospho-specific STAT3 (Tyrosine 705) (P-STAT3, Y705), ERK1/2 (Threonine 202/Tyrosine 204), cleaved Poly (ADP-ribose) polymerase (PARP), ALDH1, cleaved caspase-3, and GAPDH were used for western blots.
LLL12 was synthesized in Dr. Pui-Kai Li’s laboratory (College of Pharmacy, The Ohio State University). Un-separated cells were treated with 10 µM of LLL12 or DMSO for 24 hours, and the phosphorylation of STAT3 (Y705), and ERK 1/2 (T202/Y204), and expression of STAT3 downstream genes, cleaved caspase-3, and PARP were detected by Western blots. (JPG) Click here for additional data file.

[2] = test system: mTOR and AKT phosphorylation; experiment: mTOR and AKT phosphorylation in ALDH+ cells; type: cell-based, human; conditions: ALDH+ subpopulation, all three cell lines; 5 µmol/L, 24 hours
Description: as §2

STAT3 target genes = experiment: RT-PCR of STAT3 downstream target genes in ALDH+ cells; type: cell-based, human; conditions: 5 µM, 24 h
Description: The ALDH^+ and ALDH^+/CD44^+/CD24^− subpopulations of breast cancer cells were treated with LLL12 (5 µM) or DMSO for 24 h. RNA from the cells was then collected using RNeasy Kits (Qiagen). cDNA was constructed from a 500 ng sample of RNA using Omniscript RT (Qiagen). Primer sequences and source information can be found in Table S1. The intensity of bands was quantified and normalized to GAPDH.

[3] = test system: ALDH+ subpopulation in MDA-MB-231, SUM159, and SK-BR3 cancer cells; experiment: ALDEFLUOR assay, percentage of ALDH+ subpopulation; type: cell-based, human; conditions: un-separated MDA-MB-231, SUM159, SK-BR3; LLL12 5 µmol/L or Stattic 10 µM, 24 hours
Description: The ALDEFLUOR kit (StemCell Technologies) was used to isolate the population with high ALDH enzymatic activity as previously described. Briefly, cells were trypsinized to single cells using 0.05% trypsin and subsequently suspended in ALDEFLUOR assay buffer containing ALDH substrate (BAAA, 1 µmol/l per 1×10^6 cells) and then incubated for 40 minutes at 37°C. For each sample, an aliquot of cells was stained under identical conditions with 15 mmol/L diethylaminobenzaldehyde (DEAB), a specific ALDH inhibitor, as an ALDH^− control. Anti-human PE-CD24 and PE-Cy5-CD44 antibody (BioLegend) were used for CD44/CD24 identification and to separate ALDH^+/CD44^+/CD24^− and ALDH^−/CD44^+/CD24^+ cells when combined with ALDH staining. Analysis was performed using a FACStarPLUS (Becton Dickinion) flow cytometer. To assess the effect of STAT3 inhibitors on the subpopulation of ALDH^+ cells, un-separated breast cancer cells were treated with 5 µmol/L of LLL12 or 10 µmol/L Stattic for 24 hours prior to performing the ALDEFLUOR assay.

[4] = test system: ALDH+ subpopulation from MDA-MB-231, SUM159, and SK-BR3 cells; experiment: MTT cell viability assay, ALDH+ subpopulation; type: cell-based, human; conditions: 1 to 10 µmol/L 72 hours, ShRNA 48 hours
Description: The breast cancer cells were seeded in 96-well plates (3,000 cells/well) in triplicates in a serum-free mammary epithelial basal medium. The following day, cancer cells were treated with 1 to 10 µmol/L of LLL12 or Stattic for 72 hours, STAT3 ShRNA or control GFP shRNA lentivirus (CTL ShRNA) for 48 hours. MTT (Thiazolyl Blue Tetrazolium Bromide, Sigma-Aldrich) assay was used to determine the cell viability.

[5] = test system: SUM159 ALDH+ breast cancer stem-like cells; experiment: Mouse mammary fat pad model with SUM159 ALDH+ cells; type: in vivo, NOD/SCID mice; conditions: 5 mg/kg IP daily
Description: For mammary fat pad experiments, 1×10^5 of sorted SUM159 ALDH^+ cells, assessed using Aldefluor kit (StemCell Technologies) were injected into the humanized fat pads of NOD/SCID mice (The Jackson Laboratory), as previously described [5]. […] Tumors were measured by a caliper and the volume was calculated using V = π (width^2×length)/6. After 15 days of treatments with LLL12 or vehicle control, tumors were harvested from euthanized mice, snap-frozen in liquid nitrogen, and stored in −80°C. […] The rest of tumors tissues were homogenized to examine the expression of STAT3 phosphorylation by western blot.

[6] = test system: ALDH+/CD44+/CD24− SUM-159 breast cancer stem-like cells; experiment: Mouse xenograft of SUM159 ALDH+/CD44+/CD24− cells; type: in vivo, NOD/SCID mice; conditions: 5 mg/kg IP daily; P<0.05
Description: All animal studies were conducted in accordance with the principles and standard procedures approved by IACUC at the Research Institute at Nationwide Children’s Hospital and the University Committee on the Use and Care of Animals at the University of Michigan. ALDH^+ subpopulations of MDA-MB-231 and ALDH^+/CD44^+/CD24^− subpopulations of SUM-159 breast cancer cells (1×10^5) respectively were injected subcutaneous (s.c.) into the flank area of female Non-obese diabetic (NOD)/Severe combined immunodeficiency (SCID) mice which were purchased from Jackson Laboratory.

Chain of JAK2 (O60674 whole entry): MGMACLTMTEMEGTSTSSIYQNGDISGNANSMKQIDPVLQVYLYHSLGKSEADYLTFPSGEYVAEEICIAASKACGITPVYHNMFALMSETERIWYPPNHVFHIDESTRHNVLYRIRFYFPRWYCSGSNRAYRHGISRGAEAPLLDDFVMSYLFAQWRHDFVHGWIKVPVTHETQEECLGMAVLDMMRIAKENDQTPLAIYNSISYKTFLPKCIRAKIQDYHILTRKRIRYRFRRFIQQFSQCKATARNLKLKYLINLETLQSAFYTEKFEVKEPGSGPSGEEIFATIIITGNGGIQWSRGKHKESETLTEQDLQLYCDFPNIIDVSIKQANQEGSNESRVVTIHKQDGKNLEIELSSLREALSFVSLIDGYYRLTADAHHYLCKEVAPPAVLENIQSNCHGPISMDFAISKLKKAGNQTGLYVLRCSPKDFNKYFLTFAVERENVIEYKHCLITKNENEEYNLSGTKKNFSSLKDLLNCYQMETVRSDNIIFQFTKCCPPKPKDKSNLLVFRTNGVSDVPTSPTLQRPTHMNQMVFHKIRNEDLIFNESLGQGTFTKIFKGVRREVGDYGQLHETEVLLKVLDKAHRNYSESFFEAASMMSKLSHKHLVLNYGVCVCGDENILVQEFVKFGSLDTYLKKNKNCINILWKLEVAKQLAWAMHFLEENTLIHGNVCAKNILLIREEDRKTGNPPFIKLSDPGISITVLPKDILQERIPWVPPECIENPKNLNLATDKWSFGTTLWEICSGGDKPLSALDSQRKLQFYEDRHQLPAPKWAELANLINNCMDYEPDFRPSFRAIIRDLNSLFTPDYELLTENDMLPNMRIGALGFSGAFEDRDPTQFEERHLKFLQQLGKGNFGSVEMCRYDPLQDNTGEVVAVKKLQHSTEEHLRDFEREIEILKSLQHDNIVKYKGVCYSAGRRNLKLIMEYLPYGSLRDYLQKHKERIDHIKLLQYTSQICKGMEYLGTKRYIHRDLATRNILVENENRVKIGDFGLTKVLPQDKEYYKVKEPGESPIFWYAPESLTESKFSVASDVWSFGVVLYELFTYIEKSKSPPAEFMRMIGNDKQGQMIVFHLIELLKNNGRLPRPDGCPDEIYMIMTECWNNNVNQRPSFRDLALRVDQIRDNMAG

## NS(=O)(=O)c1cccc2c1C(=O)c1cccc(O)c1C2=O [LLL12]
JAK2
  IC50: > 100 µM
Syk
  IC50: > 100 µM
c-Raf
  IC50: ≥ 77.9 µM
PI3K
  IC50: ≥ 77.9 µM
[1]
  phosphorylation of ERK: did not inhibit
[2]
  mTOR and AKT phosphorylation: almost no effect
STAT3 target genes; ALDH+ breast cancer cells
  expression of STAT3 target genes Cyclin D1, survivin, Bcl-2, Bcl-XL, MMP-2, and MMP-9: down-regulated
STAT3 target genes; ALDH+ breast cancer stem-like cells
  Twist1, Notch-1, and Notch-3 expression: inhibited
[3]
  ALDH+ subpopulation (percentage): decrease
[4]
  cell viability of the ALDH+ subpopulation: inhibit
[5]
  STAT3 phosphorylation in tumor: significant suppresses
[5]; 15 days, P<0.05
  tumor mass: significant suppresses
  tumor volume: significant suppresses
[6]
  tumor volume: significantly suppressed
